Reference: patent US20220306647A1, “NOVEL INDOLE-2-CARBOXAMIDES ACTIVE AGAINST THE HEPATITUS B VIRUS (HBV)” (AICURIS GMBH & CO. KG, priority 2019, published 2022)
Like-named read-outs stand apart in the source and are kept apart here.

How the values were obtained:
[1] = system: HBV (HepAD38 cells); assay: HBV replication assay: determination of HBV DNA from the supernatants of HepAD38 cells; type: cell-based; conditions: Hepatitis B virus, 144 h, HBV DNA in HepAD38 supernatant at day 6, qPCR, read-out: Cell activity
Method: Determination of HBV DNA from the Supernatants of HepAD38 Cells
The anti-HBV activity was analysed in the stable transfected cell line HepAD38, which has been described to secrete high levels of HBV virion particles (Ladner et al., 1997). In brief, HepAD38 cells were cultured at 37° C. at 5% CO2 and 95% humidity in 200 μl maintenance medium, which was Dulbecco's modified Eagle's medium/Nutrient Mixture F-12 (Gibco, Karlsruhe), 10% fetal bovine serum (PAN Biotech Aidenbach) supplemented with 50 μg/ml penicillin/streptomycin (Gibco, Karlsruhe), 2 mM L-glutamine (PAN Biotech, Aidenbach), 400 μg/ml G418 (AppliChem, Darmstadt) and 0.3 μg/ml tetracycline. Cells were subcultured once a week in a 1:5 ratio, but were usually not passaged more than ten times. For the assay 60,000 cells were seeded in maintenance medium without any tetracycline into each well of a 96-well plate and treated with serial half-log dilutions of test compound. To minimize edge effects the outer 36 wells of the plate were not used but were filled with assay medium. On each assay plate six wells for the virus control (untreated HepAD38 cells) and six wells for the cell control (HepAD38 cells treated with 0.3 μg/ml tetracycline) were allocated, respectively. In addition, one plate set with reference inhibitors like BAY 41-4109, entecavir, and lamivudine instead of screening compounds were prepared in each experiment. In general, experiments were performed thrice in triplicates. At day 6 HBV DNA from 100 μl filtrated cell culture supernatant (AcroPrep Advance 96 Filter Plate, […] Supor membran, PALL GmbH, Dreieich) was automatically purified on the MagNa Pure LC instrument using the MagNA Pure 96 DNA and Viral NA Small Volume Kit (Roche Diagnostics, Mannheim) according to the instructions of the manufacturer. EC50 values were calculated from relative copy numbers of HBV DNA In brief, 5 μl of the 100 μl eluate containing HBV DNA were subjected to PCR LC480 Probes Master Kit (Roche) together with 1 μM antisense primer […], 0.5 μM sense primer […], 0.3 μM hybprobes […]-FL and LC640-[…]-PH (TIBMolBiol, Berlin) to a final volume of 12.5 μl. The PCR was performed on the Light Cycler 480 real time system (Roche Diagnostics, Mannheim) using the following protocol: Pre-incubation for 1 min at 95° C., amplification: 40 cycles×(10 sec at 95° C., 50 sec at 60° C., 1 sec at 70° C.), cooling for 10 sec at 40° C. Viral load was quantitated against known standards using HBV plasmid DNA of pCH-9/3091 (Nassal et al., 1990, Cell 63: 1357-1363) and the LightCycler 480 SW 1.5 software (Roche Diagnostics, Mannheim) and EC50 values were calculated using non-linear regression with GraphPad Prism 6 (GraphPad Software Inc., La Jolla, USA).

[2] = target: T1, HBV core protein (C-terminal truncated core protein, 149 amino acids of the N-terminal assembly domain, BODIPY-FL labelled) (UniProt P03146); assay: Biochemical capsid assembly assay (fluorescence quenching)
T1 construct: fused on or other part: A single cysteine added after residue 149, at position 150; It carries the BODIPY-FL maleimide label
T1 sequence (P03146 whole entry, the tested form may be a part): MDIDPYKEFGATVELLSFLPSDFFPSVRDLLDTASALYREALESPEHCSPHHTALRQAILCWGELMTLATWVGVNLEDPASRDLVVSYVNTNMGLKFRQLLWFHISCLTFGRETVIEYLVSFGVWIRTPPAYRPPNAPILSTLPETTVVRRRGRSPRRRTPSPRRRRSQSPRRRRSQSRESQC
Method in brief: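 Fluorescence quenching of BODIPY-FL-labelled core dimers (1.0 to 2.0 μM) in 50 mM HEPES pH 7.5; compounds at 8 concentrations, 0.5 log-unit dilutions from top 100, 31.6 or 10 μM, 0.5% DMSO. Assembly started with NaCl to […]; fluorescence (ex 477/em 525 nm) read after 6 min. EC50 by non-linear regression.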

[3] = read-out: Assembly activity, assembly started with NaCl, fluorescence read after 6 min
[4] = assembly started with NaCl, fluorescence read after 6 min, read-out: Assembly activity

| SMILES | EC50 [1] [µM] | IC50 [2, 3] [µM] | IC50 [2, 4] [µM] |
| --- | --- | --- | --- |
| CN(C(=O)c1onc2c1CN(C(=O)c1cc3ccccc3[nH]1)CC2)C1CC1 [Example 39, N-cyclopropyl-5-(1H-indole-2-carbonyl)-N-methyl-4,5,6,7-tetrahydroisoxazolo[4,3-c]pyridine-3-carboxamide] | < 1 | < 5 |  |
| CN(CCO)C(=O)c1noc2c1CN(C(=O)c1cc3c(F)cc(F)cc3[nH]1)CC2 [Example 23, 5-(4,6-difluoro-1H-indole-2-carbonyl)-N-(2-hydroxyethyl)-N-methyl-4H,5H,6H,7H-[1,2]oxazolo[4,5-c]pyridine-3-carboxamide] | < 1 |  | < 5 |
| O=C1NC2(CC2)Cn2nc3c(c21)CN(C(=O)c1cc2ccccc2[nH]1)CC3 [Example 43, 12′-(1H-indole-2-carbonyl)-4′,7′,8′,12′-tetraazaspiro[cyclopropane-1,5′-tricyclo[7.4.0.0^2, D]tridecane]-1′,8′-dien-3′-one] | 1 to 10 | < 5 |  |
| COCC1(N(C)C(=O)c2noc3c2CN(C(=O)c2cc4c(F)cc(F)cc4[nH]2)CC3)CC1 [Example 6, 5-(4,6-difluoro-1H-indole-2-carbonyl)-N-[1-(methoxymethyl)cyclopropyl]-N-methyl-4H,5H,6H,7H-[1,2]oxazolo[4,5-c]pyridine-3-carboxamide] | < 1 |  | < 5 |
| CN(C(=O)c1cnn2c1CN(C(=O)c1cc3cc(F)c(F)cc3[nH]1)CC2)C1(c2ccc(C(=O)O)cc2)CC1 [Example 77, 4-{1-[N-methyl-5-(5,6-difluoro-1H-indole-2-carbonyl)-4H,5H,6H,7H-pyrazolo[1,5-a]pyrazine-3-amido]cyclopropyl}benzoic acid] | < 1 |  | < 5 |
| Cc1cc(F)cc2[nH]c(C(=O)N3CCn4ncc(C(=O)N(C)C5(c6ncc(C(=O)O)cn6)CC5)c4C3)cc12 [Example 60, 2-{1-[N-methyl-5-(6-fluoro-4-methyl-1H-indole-2-carbonyl)-4H,5H,6H,7H-pyrazolo[1,5-a]pyrazine-3-amido]cyclopropyl}pyrimidine-5-carboxylic acid] | 1 to 10 |  | < 5 |
| CN(C(=O)c1noc2c1CN(C(=O)c1cc3ccccc3[nH]1)CC2)C1(CO)CC1 [Example 8, N-[I1-(hydroxymethyl)cyclopropyl]-5-(1H-indole-2-carbonyl)-N-methyl-4H,5H,6H,7H-[1,2]oxazolo[4,5-c]pyridine-3-carboxamide] | < 1 |  | < 5 |
| COCC1(N(C)C(=O)c2onc3c2CN(C(=O)c2cc4ccccc4[nH]2)CC3)CC1 [Example 38, 5-(1H-indole-2-carbonyl)-N-[1-(methoxymethyl)cyclopropyl]-N-methyl-4H,5H,6H,7H-[1,2]oxazolo[4,3-c]pyridine-3-carboxamide] | < 1 |  | < 5 |
| CN(C(=O)c1cnn2c1CN(C(=O)c1cc3ccccc3[nH]1)CC2)C1(COc2ccccc2C(=O)O)CC1 [Example 61, 2-({1-[N-methyl-5-(1H-indole-2-carbonyl)-4H,5H,6H,7H-pyrazolo[1,5-a]pyrazine-3-amido]cyclopropyl}methoxy)benzoic acid] | 1 to 10 |  | < 5 |
| CN(C(=O)c1cnn2c1CN(C(=O)c1cc3ccccc3[nH]1)CC2)C1(c2ccc(C(=O)O)cn2)CC1 [Example 31, 6-{1-[N-methyl-5-(1H-indole-2-carbonyl)-4H,5H,6H,7H-pyrazolo[1,5-a]pyrazine-3-amido]cyclopropyl}pyridine-3-carboxylic acid] | < 100 |  | < 5 |
| Cc1c(F)ccc2[nH]c(C(=O)N3CCc4onc(C(=O)N[C@H](C)C(F)(F)F)c4C3)cc12 [Example 106, 5-(5-fluoro-4-methyl-1H-indole-2-carbonyl)-N-[(2R)-1,1,1-trifluoropropan-2-yl]-4H,5H,6H,7H-[1,2]oxazolo[4,5-c]pyridine-3-carboxamide] | < 1 |  | < 5 |
| CN(Cc1ccccn1)C(=O)c1noc2c1CN(C(=O)c1cc3ccccc3[nH]1)CC2 [Example 26, 5-(1H-indole-2-carbonyl)-N-methyl-N-[(pyridin-2-yl)methyl]-4H,5H,6H,7H-[1,2]oxazolo[4,5-c]pyridine-3-carboxamide] | 1 to 10 |  | < 5 |
| CC1Cn2cnc(C(=O)N(C)C3(c4cccc(C(=O)O)c4)CC3)c2CN1C(=O)c1cc2ccccc2[nH]1 (stereo not drawn) [Example 41, 3-{1-[N-methyl-7-(1H-indole-2-carbonyl)-6-methyl-5H,6H,7H,8H-imidazo[1,5-a]pyrazine-1-amido]cyclopropyl}benzoic acid] | 1 to 10 | < 5 |  |
| Cc1cccc2[nH]c(C(=O)N3CCn4ncc(C(=O)N(C)C5(c6ccc(C(=O)O)cc6)CC5)c4C3)cc12 [Example 82, 4-{1-[N-methyl-5-(4-methyl-1H-indole-2-carbonyl)-4H,5H,6H,7H-pyrazolo[1,5-a]pyrazine-3-amido]cyclopropyl}benzoic acid] | < 1 | < 5 |  |
| Cc1cc(F)cc2[nH]c(C(=O)N3CCc4nn5c(c4C3)C(=O)N(C)C3(CC3)C5)cc12 [Example 88, 12′-(6-fluoro-4-methyl-1H-indole-2-carbonyl)-4′-methyl-4′,7′,8′,12′-tetraazaspiro[cyclopropane-1,5′-tricyclo[7.4.0.0^2,7]tridecane]-1′,8′-dien-3′-one] | < 1 |  | < 5 |
| CN(C(=O)c1cnn2c1CN(C(=O)c1cc3c(F)c(F)ccc3[nH]1)CC2)C1(c2cccc(C(=O)O)c2)CC1 [Example 42, 3-{1-[N-methyl-5-(4,5-difluoro-1H-indole-2-carbonyl)-4H,5H,6H,7H-pyrazolo[1,5-a]pyrazine-3-amido]cyclopropyl}benzoic acid] | 1 to 10 |  | < 5 |
| CN(C(=O)c1cnn2c1CN(C(=O)c1cc3c(Cl)c(F)ccc3[nH]1)CC2)C1(c2ccc(C(=O)O)cc2)CC1 [Example 80, 4-{1-[N-methyl-5-(4-chloro-5-fluoro-1H-indole-2-carbonyl)-4H,5H,6H,7H-pyrazolo[1,5-a]pyrazine-3-amido]cyclopropyl}benzoic acid] | < 1 |  | < 5 |
| Cc1c(F)ccc2[nH]c(C(=O)N3CCc4nn5c(c4C3)C(=O)N(C)C3(CC3)C5)cc12 [Example 18, 12′-(5-fluoro-4-methyl-1H-indole-2-carbonyl)-4′-methyl-4′,7′,8′,12′-tetraazaspiro[cyclopropane-1,5′-tricyclo[7.4.0.0^2′7]tridecane]-1′,8′-dien-3′-one] | < 1 |  | < 5 |
| CN(C(=O)c1cnn2c1CN(C(=O)c1cc3cc(F)c(Cl)cc3[nH]1)CC2)C1(c2ncc(C(=O)O)cn2)CC1 [Example 57, 2-{1-[N-methyl-5-(6-chloro-5-fluoro-1H-indole-2-carbonyl)-4H,5H,6H,7H-pyrazolo[1,5-a]pyrazine-3-amido]cyclopropyl}pyrimidine-5-carboxylic acid] | 1 to 10 |  | < 5 |
| CN(C(=O)c1cnn2c1CN(C(=O)c1cc3ccccc3[nH]1)CC2)C1(COc2ccc(C(=O)O)cc2)CC1 [Example 47, 4-({1-[N-methyl-5-(1H-indole-2-carbonyl)-4H,5H,6H,7H-pyrazolo[1,5-a]pyrazine-3-amido]cyclopropyl}methoxy)benzoic acid] | < 1 |  | < 5 |
| CN1C(=O)c2c3c(nn2CC12CC2)CCN(C(=O)c1cc2c(Cl)c(F)ccc2[nH]1)C3 [Example 87, 12′-(4-chloro-5-fluoro-1H-indole-2-carbonyl)-4′-methyl-4′,7′,8′,12′-tetraazaspiro[cyclopropane-1,5′-tricyclo[7.4.0.0^2,7]tridecane]-1′,8′-dien-3′-one] | < 1 | < 5 |  |
